Results published in US20240067634A1, “INHIBITORS OF NEF DOWNMODULATION” (priority 2020, published 2024).
Where two headings read alike, the source gives them in different places.

Target: V-ATPase-dependent lysosomal acidification
Assay: cells
Assay type: cell-based, human
Conditions: read-out: Lyso IC50
Source text: Determine effect on V-ATPase activity: Plecomacrolides are known inhibitors of V-ATPase that neutralize normally acidified lysosomes. […] Thus, analogs of the disclosure are further characterized by measuring their effects on lysosome acidification.
LysoTracker® is a fluorophore linked to a weak base that is partially protonated at neutral pH. This form of the probe is capable of freely permeating cell membranes of live cells. In acidic compartments, protonation creates a form that was impermeable causing the probe to accumulate inside the lysosome.

[1] = 24 hr Lysotracker IC50, 1000 nM set as activity threshold (FIG. 11-14)
[2] = Homo sapiens, PBMC, 24 h, 24 hr Lysotracker IC50, 1000 nM set as activity threshold (FIG. 11-14)

Compound: 19-Deoxy-20-ene Baf A1
- IC50 [1]: 0.341 µM

Compound: 19-Deoxy-21-Methoxy Baf A1
- IC50 [1]: 0.0496 µM

Compound: 19-Deoxy-21-allylester Baf A1
- IC50 [1]: 0.152 µM

Compound: C/C=C/[C@H]1O[C@@H]([C@@H](C)[C@H](O)[C@H](C)[C@H]2OC(=O)/C(O)=C/C(C)=C/[C@@H](C)[C@@H](O)[C@@H](CC)[C@@H](O)[C@H](C)C/C(C)=C/C=C/[C@@H]2OC)C[C@@H](O)[C@@H]1C [2-hydroxy-21-deoxy CMF, 21-deoxy-2-hydroxy-Concanamycin F]
- IC50 [2]: ≥ 1 µM

Compound: C#CCCC(=O)O[C@@H]1[C@H](C)/C=C(C)/C=C(\OC)C(=O)O[C@H]([C@@H](C)[C@@H](O)[C@H](C)[C@@]2(O)C[C@@H](OC(=O)c3ccc(C4(C(F)(F)F)N=N4)cc3)[C@H](C)[C@@H](C(C)C)O2)[C@@H](OC)/C=C/C=C(\C)C[C@@H]1C [7 Alkyne 21-Y Bafilomycin Probe, 21-(3-(trifluoromethyl)-3H-diazirin-3-yl)benzoate-7-pent-4-ynoate-Bafilomycin]
- IC50 [2]: ≥ 1 µM

Compound: CO/C1=C\C(C)=C\[C@@H](C)C(=O)[C@@H](C)C/C(C)=C/C=C/[C@H](OC)[C@@H]([C@@H](C)[C@@H](O)[C@H](C)[C@@]2(O)CC(=O)[C@H](C)[C@@H](C(C)C)O2)OC1=O [7,21-Dione Baf A1, 7,21-dione Bafilomycin]
- IC50 (Homo sapiens, PBMC, 24 h): ≥ 1 µM

Compound: CO/C1=C\C(C)=C\[C@@H](C)C(=O)[C@@H](C)C/C(C)=C/C=C/[C@H](OC)[C@@H]([C@@H](C)[C@@H](O)[C@H](C)[C@@]2(O)C[C@@H](O)[C@H](C)[C@@H](C(C)C)O2)OC1=O [7-One Baf A1, 7-one Bafilomycin]
- IC50 (Homo sapiens, PBMC, 24 h): ≥ 1 µM

Compound: CO/C1=C\C(C)=C\[C@@H](C)[C@@H](O)[C@@H](C)C/C(C)=C/C=C/[C@H](OC)[C@@H]([C@@H](C)[C@@H](O)[C@H](C)[C@H]2C[C@@H](O)[C@H](C)[C@@H](C(C)C)O2)OC1=O [19-Deoxy Baf A1, 19-deoxy Bafilomycin]
- IC50 [2]: 0.111 µM

Compound: C#CCCC(=O)O[C@@H]1C[C@H]([C@@H](C)[C@H](O)[C@H](C)[C@H]2OC(=O)/C(OC)=C/C(C)=C/[C@@H](C)[C@@H](O)[C@@H](C)C/C(C)=C/C=C/[C@@H]2OC)OC(C(C)C)[C@H]1C (some centres unmarked) [19-Deoxy-21(4-Pentynoate) Baf A1, 19-deoxy-21-pent-4-ynoate Bafilomycin]
- IC50 [2]: 0.0764 µM

Compound: C#CCCC(=O)O[C@@H]1C[C@](O)([C@@H](C)[C@H](O)[C@H](C)[C@H]2OC(=O)/C(OC)=C/C(C)=C/[C@@H](C)[C@@H](O)[C@@H](C)C/C(C)=C/C=C/[C@@H]2OC)O[C@H](C(C)C)[C@H]1C [21 Alkyne Bafilomycin Probe, 21-pent-4-ynoate Bafilomycin]
- IC50 [2]: 0.0291 µM

Compound: C#CCCC1(CCC(=O)O[C@@H]2C[C@](O)([C@@H](C)[C@H](O)[C@H](C)[C@H]3OC(=O)/C(OC)=C/C(C)=C/[C@@H](C)[C@@H](O)[C@@H](C)C/C(C)=C/C=C/[C@@H]3OC)O[C@H](C(C)C)[C@H]2C)N=N1 [21 Dual Linear Bafilomycin Probe, 21-(3-(3-(but-3-yn-1-yl)-3H-diazirin-3-yl)propanoate) Bafilomycin]
- IC50 [2]: 0.0283 µM

Compound: CO/C1=C\C(C)=C\[C@@H](C)[C@@H](O)[C@@H](C)C/C(C)=C/C=C/[C@H](OC)[C@@H]([C@@H](C)[C@@H](O)[C@H](C)[C@@]2(O)C[C@@H](OC(C)=O)[C@H](C)[C@@H](C(C)C)O2)OC1=O [21-Acetyl Baf, 21-Acetyl Bafilomycin]
- IC50 (Homo sapiens, PBMC, 24 h): 0.0227 µM

Compound: C/C=C/[C@H]1O[C@@H]([C@@H](C)[C@H](O)[C@H](C)[C@H]2OC(=O)/C(OC)=C/C(C)=C/[C@@H](C)[C@@H](O)[C@@H](CC)[C@@H](O)[C@H](C)C/C(C)=C/C=C/[C@@H]2OC)C[C@@H](O[C@@H]2C[C@H](O)[C@@H](O)[C@H](C)O2)[C@@H]1C [21-Deoxy CMC, 21-deoxy CMC]
- IC50 [2]: 0.00704 µM

Compound: CCCCCCCCC(=O)O[C@@H]1C[C@](O)([C@@H](C)[C@H](O)[C@H](C)[C@H]2OC(=O)/C(OC)=C/C(C)=C/[C@@H](C)[C@@H](O)[C@@H](C)C/C(C)=C/C=C/[C@@H]2OC)O[C@H](C(C)C)[C@H]1C [21-Nonanoate Baf A1, 21-nonanoate Bafilomycin]
- IC50 [2]: 0.146 µM
